Test results taken from US20220323406A1, “METHODS AND COMPOSITIONS FOR DIFFERENTIATING STEM CELLS” (Massachusetts Institute of Technology, priority 2019, published 2022).

Assays:
ENR+CD organoids = assay: Primary screen: ATP (CellTiter-Glo 3D, CTG) cell number/viability, 2.5-D 384-well ENR+CD organoids; conditions: primary screen; for Z.CTG: standard z score;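 for all read-outs here: compounds given at plating and again on day 3 over a 6-day differentiation from ENR+CV stem-cell-enriched precursors, ATP measured on day 6, plate median as control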
[1] = system: ENR+CD organoids (ISC to Paneth cell differentiation); assay: Primary screen: CCh-stimulated lysozyme secretion LYZ.S, 2.5-D 384-well ENR+CD organoid differentiation; type: cell-based, mouse; conditions: primary screen
Text: (§1) High-throughput screening.

[2] = system: ENR+CD organoids (ISC to Paneth cell differentiation); assay: Primary screen: basal (non-stimulated) lysozyme secretion LYZ.NS, 2.5-D 384-well ENR+CD organoid differentiation; type: cell-based, mouse; conditions: primary screen; for Z.LYZ.NS: standard z score
Text: as §1

[3] = dose 0.08 uM, FC vs plate median
[4] = dose 0.40 uM, FC vs plate median
[5] = dose 2.00 uM, FC vs plate median
[6] = dose 10.00 uM, FC vs plate median
[7] = 1st dose row of the treatment (0.08 uM by row order; dose not reprinted)
[8] = 2nd dose row of the treatment (0.40 uM by row order; dose not reprinted)
[9] = 3rd dose row of the treatment (2.00 uM by row order; dose not reprinted)
[10] = 4th dose row of the treatment (10.00 uM by row order; dose not reprinted)

Q: For O=[N+]([O-])C=Cc1ccc2c(c1)OCO2, which Z.CTG (ENR+CD organoids; dose 0.08 uM) is on record?
A: −0.037

Q: And the Z.CTG (ENR+CD organoids; dose 0.40 uM)?
A: 0.146

Q: What about the Z.CTG (ENR+CD organoids; dose 2.00 uM) of the same compound?
A: 0.148

Q: And the Z.CTG (ENR+CD organoids; dose 10.00 uM)?
A: −0.469

Q: What about the Dose.FC.CTG (ENR+CD organoids; [3]) of the same compound?
A: −0.016 log2 fold change

Q: And the Dose.FC.CTG (ENR+CD organoids; [4])?
A: 0.061 log2 fold change

Q: What about the Dose.FC.CTG (ENR+CD organoids; [5]) of the same compound?
A: 0.062 log2 fold change

Q: What about the Dose.FC.CTG (ENR+CD organoids; [6]) of the same compound?
A: −0.197 log2 fold change

Q: What about the Dose.FC.LYZ.S [1, 3] of the same compound?
A: 0.076 log2 fold change

Q: And the Dose.FC.LYZ.S [1, 4]?
A: 0.100 log2 fold change

Q: What about the Dose.FC.LYZ.S [1, 5] of the same compound?
A: 0.019 log2 fold change

Q: And the Dose.FC.LYZ.S [1, 6]?
A: −0.179 log2 fold change

Q: What about the Z.LYZ.NS ([2]; dose 0.08 uM) of the same compound?
A: 0.499

Q: What about the Z.LYZ.NS ([2]; dose 0.40 uM) of the same compound?
A: −0.088

Q: What about the Z.LYZ.NS ([2]; dose 2.00 uM) of the same compound?
A: 0.347

Q: And the Z.LYZ.NS ([2]; dose 10.00 uM)?
A: −1.307

Q: And the Dose.FC.LYZ.NS [2, 3]?
A: 0.057 log2 fold change

Q: What about the Dose.FC.LYZ.NS [2, 4] of the same compound?
A: −0.010 log2 fold change

Q: What about the Dose.FC.LYZ.NS [2, 5] of the same compound?
A: 0.040 log2 fold change

Q: What about the Dose.FC.LYZ.NS [2, 6] of the same compound?
A: −0.150 log2 fold change

Q: Which “SSMD.CTG.Rep (strictly standardized mean difference)” value (ENR+CD organoids; [7]) does the source give for O=C(O)C(Cc1ccccc1[N+](=O)[O-])=NNc1nc(-c2ccc(Cl)c(Cl)c2)cs1 (mixture of isomers) [4EGI-1] here?
A: −0.352

Q: What about the “SSMD.CTG.Rep (strictly standardized mean difference)” value (ENR+CD organoids; [8]) of the same compound?
A: −0.158

Q: And the “SSMD.CTG.Rep (strictly standardized mean difference)” value (ENR+CD organoids; [9])?
A: 0.407

Q: What about the “SSMD.CTG.Rep (strictly standardized mean difference)” value (ENR+CD organoids; [10]) of the same compound?
A: −0.283

Q: What about the Dose.FC.CTG (ENR+CD organoids; dose 0.08 uM) of the same compound?
A: −0.160 log2 fold change

Q: What about the “Z.CTG (standard z score)” value (ENR+CD organoids; dose 0.08 uM) of the same compound?
A: −0.383

Q: What about the Dose.FC.CTG (ENR+CD organoids; dose 0.40 uM) of the same compound?
A: −0.131 log2 fold change

Q: And the “Z.CTG (standard z score)” value (ENR+CD organoids; dose 0.40 uM)?
A: −0.314

Q: What about the Dose.FC.CTG (ENR+CD organoids; dose 2.00 uM) of the same compound?
A: 0.127 log2 fold change

Q: And the “Z.CTG (standard z score)” value (ENR+CD organoids; dose 2.00 uM)?
A: 0.304

Q: What about the Dose.FC.CTG (ENR+CD organoids; dose 10.00 uM) of the same compound?
A: −0.109 log2 fold change

Q: And the “Z.CTG (standard z score)” value (ENR+CD organoids; dose 10.00 uM)?
A: −0.261

Q: What about the “SSMD.LYZ.S_Rep (strictly standardized mean difference)” value [1, 7] of the same compound?
A: −0.264

Q: What about the “Z.LYZ.S (standard z score)” value [1, 7] of the same compound?
A: −0.236

Q: What about the “SSMD.LYZ.S_Rep (strictly standardized mean difference)” value [1, 8] of the same compound?
A: 0.326

Q: What about the “Z.LYZ.S (standard z score)” value [1, 8] of the same compound?
A: 0.352

Q: And the “SSMD.LYZ.S_Rep (strictly standardized mean difference)” value [1, 9]?
A: −0.328

Q: And the “Z.LYZ.S (standard z score)” value [1, 9]?
A: −0.380

Q: What about the “SSMD.LYZ.S_Rep (strictly standardized mean difference)” value [1, 10] of the same compound?
A: 0.189

Q: What about the “Z.LYZ.S (standard z score)” value [1, 10] of the same compound?
A: 0.366

Q: And the Dose.FC.LYZ.S ([1]; dose 0.08 uM)?
A: −0.037 log2 fold change

Q: And the Dose.FC.LYZ.S ([1]; dose 0.40 uM)?
A: 0.054 log2 fold change

Q: And the Dose.FC.LYZ.S ([1]; dose 2.00 uM)?
A: −0.059 log2 fold change

Q: What about the Dose.FC.LYZ.S ([1]; dose 10.00 uM) of the same compound?
A: 0.057 log2 fold change

Q: And the “SSMD.LYZ.NS_Rep (strictly standardized mean difference)” value [2, 7]?
A: 0.378

Q: What about the “SSMD.LYZ.NS_Rep (strictly standardized mean difference)” value [2, 8] of the same compound?
A: 0.264

Q: What about the “SSMD.LYZ.NS_Rep (strictly standardized mean difference)” value [2, 9] of the same compound?
A: 0.252

Q: And the “SSMD.LYZ.NS_Rep (strictly standardized mean difference)” value [2, 10]?
A: −0.257

Q: What about the Dose.FC.LYZ.NS ([2]; dose 0.08 uM) of the same compound?
A: 0.110 log2 fold change

Q: What about the “Z.LYZ.NS (standard z score)” value ([2]; dose 0.08 uM) of the same compound?
A: 0.956

Q: And the Dose.FC.LYZ.NS ([2]; dose 0.40 uM)?
A: 0.036 log2 fold change

Q: What about the “Z.LYZ.NS (standard z score)” value ([2]; dose 0.40 uM) of the same compound?
A: 0.315

Q: What about the Dose.FC.LYZ.NS ([2]; dose 2.00 uM) of the same compound?
A: 0.069 log2 fold change

Q: And the “Z.LYZ.NS (standard z score)” value ([2]; dose 2.00 uM)?
A: 0.597

Q: What about the Dose.FC.LYZ.NS ([2]; dose 10.00 uM) of the same compound?
A: −0.034 log2 fold change

Q: And the “Z.LYZ.NS (standard z score)” value ([2]; dose 10.00 uM)?
A: −0.300

Q: What does the source list for Fc1cc(F)c2c(c1)[C@H]1C=CC[C@H]1C(c1cccnc1)N2 (mixture of isomers) [Golgicide A]?
A: Dose.FC.CTG (log2 fold change) (ENR+CD organoids; dose 0.08 uM): 0.167; Z.CTG (standard z score) (ENR+CD organoids; dose 0.08 uM): 0.398; Dose.FC.CTG (log2 fold change) (ENR+CD organoids; dose 0.40 uM): 0.227; Z.CTG (standard z score) (ENR+CD organoids; dose 0.40 uM): 0.541; Dose.FC.CTG (log2 fold change) (ENR+CD organoids; dose 2.00 uM): 0.339; Z.CTG (standard z score) (ENR+CD organoids; dose 2.00 uM): 0.810; Dose.FC.CTG (log2 fold change) (ENR+CD organoids; dose 10.00 uM): −0.220; Z.CTG (standard z score) (ENR+CD organoids; dose 10.00 uM): −0.526; Dose.FC.LYZ.S (log2 fold change) ([1]; dose 0.08 uM): 0.146; Dose.FC.LYZ.S (log2 fold change) ([1]; dose 0.40 uM): 0.202; Dose.FC.LYZ.S (log2 fold change) ([1]; dose 2.00 uM): 0.076; Dose.FC.LYZ.S (log2 fold change) ([1]; dose 10.00 uM): −0.256; Dose.FC.LYZ.NS (log2 fold change) ([2]; dose 0.08 uM): 0.267; Z.LYZ.NS (standard z score) ([2]; dose 0.08 uM): 2.325; Dose.FC.LYZ.NS (log2 fold change) ([2]; dose 0.40 uM): 0.066; Z.LYZ.NS (standard z score) ([2]; dose 0.40 uM): 0.576; Dose.FC.LYZ.NS (log2 fold change) ([2]; dose 2.00 uM): 0.171; Z.LYZ.NS (standard z score) ([2]; dose 2.00 uM): 1.492; Dose.FC.LYZ.NS (log2 fold change) ([2]; dose 10.00 uM): −0.161; Z.LYZ.NS (standard z score) ([2]; dose 10.00 uM): −1.402

Q: How did the Dose.FC.CTG (ENR+CD organoids; dose 0.08 uM) turn out when COc1cc(CCc2cc(NC(=O)c3ccc(N4CC(C)NC(C)C4)cc3)n[nH]2)cc(OC)c1 (stereo not shown) [AZD4547] was run?
A: 0.160 log2 fold change

Q: And the “Z.CTG (standard z score)” value (ENR+CD organoids; dose 0.08 uM)?
A: 0.382

Q: What about the Dose.FC.CTG (ENR+CD organoids; dose 0.40 uM) of the same compound?
A: 0.101 log2 fold change

Q: And the “Z.CTG (standard z score)” value (ENR+CD organoids; dose 0.40 uM)?
A: 0.241

Q: What about the Dose.FC.CTG (ENR+CD organoids; dose 2.00 uM) of the same compound?
A: −0.010 log2 fold change

Q: And the “Z.CTG (standard z score)” value (ENR+CD organoids; dose 2.00 uM)?
A: −0.024

Q: What about the Dose.FC.CTG (ENR+CD organoids; dose 10.00 uM) of the same compound?
A: −0.062 log2 fold change

Q: What about the “Z.CTG (standard z score)” value (ENR+CD organoids; dose 10.00 uM) of the same compound?
A: −0.147

Q: What about the Dose.FC.LYZ.S ([1]; dose 0.08 uM) of the same compound?
A: 0.157 log2 fold change

Q: And the Dose.FC.LYZ.S ([1]; dose 0.40 uM)?
A: 0.083 log2 fold change

Q: What about the Dose.FC.LYZ.S ([1]; dose 2.00 uM) of the same compound?
A: 0.074 log2 fold change

Q: And the Dose.FC.LYZ.S ([1]; dose 10.00 uM)?
A: −0.049 log2 fold change

Q: How did the Dose.FC.CTG (ENR+CD organoids; dose 0.08 uM) turn out when CC(C)C[C@H](NC(=O)[C@H](Cc1ccccc1)NC(=O)c1cnccn1)B(O)O [Bortezomib (PS-341)] was run?
A: −1.904 log2 fold change

Q: And the “Z.CTG (standard z score)” value (ENR+CD organoids; dose 0.08 uM)?
A: −4.547

Q: And the Dose.FC.CTG (ENR+CD organoids; dose 0.40 uM)?
A: −2.146 log2 fold change

Q: What about the “Z.CTG (standard z score)” value (ENR+CD organoids; dose 0.40 uM) of the same compound?
A: −5.127

Q: And the Dose.FC.CTG (ENR+CD organoids; dose 2.00 uM)?
A: −0.915 log2 fold change

Q: And the “Z.CTG (standard z score)” value (ENR+CD organoids; dose 2.00 uM)?
A: −2.185

Q: What about the Dose.FC.CTG (ENR+CD organoids; dose 10.00 uM) of the same compound?
A: −1.359 log2 fold change

Q: What about the “Z.CTG (standard z score)” value (ENR+CD organoids; dose 10.00 uM) of the same compound?
A: −3.246

Q: What about the Dose.FC.LYZ.S ([1]; dose 0.08 uM) of the same compound?
A: −0.239 log2 fold change

Q: And the Dose.FC.LYZ.S ([1]; dose 0.40 uM)?
A: −0.173 log2 fold change

Q: And the Dose.FC.LYZ.S ([1]; dose 2.00 uM)?
A: −0.249 log2 fold change

Q: And the Dose.FC.LYZ.S ([1]; dose 10.00 uM)?
A: −0.238 log2 fold change
